Assay results taken from ChEMBL document CHEMBL1127953, “Substituent effects of benzopyran-4-(N-cyano)-carboxamidine potassium channel openers for selectivity to guinea pig trachealis” (Bioorg Med Chem Lett, 1994).

What was measured:
Format in all cases: functional
Cavia porcellus [1] = species: Cavia porcellus; test: Maximum relaxation achieved compared to maximum relaxation to aminophylline (mM) in guinea pig trachaelis
Rattus norvegicus [2] = species: Rattus norvegicus; test: Maximum reduction of 30 mM KCl- induced contraction in rat aorta
Rattus norvegicus [3] = species: Rattus norvegicus; test: […] activity in rat aorta precontracted with 30 mM KCl
Cavia porcellus [4] = species: Cavia porcellus; test: Inhibition of spontaneous tone in guinea pig trachaelis

SMILES | EC50 (Rattus norvegicus [3]) | EC50 (Cavia porcellus [4]) | Intrinsic activity (Cavia porcellus [1]) | Intrinsic activity (Rattus norvegicus [2])
CNC(=O)C1=CC(C)(C)Oc2ccc([N+](=O)[O-])cc21 | 10.7 nM | 33.1 nM | 89.6% | 61%
CN(C)C(=S)C1=CC(C)(C)Oc2ccc([N+](=O)[O-])cc21 | 955 nM | 490 nM | 77.4% | 71.5%
CN(C)/C(=N\C#N)C1=CC(C)(C)Oc2ccc([N+](=O)[O-])cc21 | > 31600 nM | 51.3 nM | 90.6% | –
CN(C)/C(=N\S(N)(=O)=O)C1=CC(C)(C)Oc2ccc([N+](=O)[O-])cc21 | > 31600 nM | > 31600 nM | – | –
CN(C)/C(=N\C#N)C1=CC(C)(C)Oc2ccc(Cl)cc21 | > 31600 nM | > 31600 nM | – | –
CN(C)/C(=C\[N+](=O)[O-])C1=CC(C)(C)Oc2ccc([N+](=O)[O-])cc21 | 6460 nM | 1120 nM | 84.8% | 83.1%
COc1ccc2c(c1)C(/C(=N/C#N)N(C)C)=CC(C)(C)O2 | > 31600 nM | > 31600 nM | – | –
CN(C)/C(=N\C#N)C1=CC(C)(C)Oc2ccccc21 | > 31600 nM | > 31600 nM | – | –
CN(C)/C(=N\C#N)C1=CC(C)(C)Oc2ccc(C(F)(F)F)cc21 | 12600 nM | 178 nM | 74.1% | 75.2%
CN(C)/C(=N\C(N)=O)C1=CC(C)(C)Oc2ccc([N+](=O)[O-])cc21 | > 31600 nM | > 31600 nM | – | –
CN(C)/C(=N\C#N)C1=CC(C)(C)Oc2ccc(S(C)(=O)=O)cc21 | > 31600 nM | > 31600 nM | – | –
CC1(C)Oc2ccc(C#N)cc2[C@@H](N2CCCC2=O)[C@H]1O [CROMAKALIM] | – | 851 nM | 85.1% | 74.7%
CC(N/C(=N\C#N)Nc1ccncc1)C(C)(C)C (centres undefined) [PINACIDIL ANHYDROUS] | – | 1580 nM | 97.3% | 91.9%

Second part, led by results:

EC50 (Rattus norvegicus [3]) | EC50 (Cavia porcellus [4]) | SMILES | Intrinsic activity (Cavia porcellus [1]) | Intrinsic activity (Rattus norvegicus [2])
> 10000 nM | 407 nM | CN(C)/C(=N/C#N)C1=CC(C)(C)Oc2ccc(OC(F)(F)F)cc21 | 56.1% | –
5010 nM | 2140 nM | CN(C)/C(=N\C#N)C1=CC(C)(C)Oc2ccc(C#N)cc21 | 85.6% | 73.7%
> 31600 nM | > 31600 nM | CN(C)/C(=N\C#N)C1=CC(C)(C)Oc2ccc(Br)cc21 | – | –
3310 nM | 3630 nM | CN(C)/C(=N\C#N)C1=CC(C)(C)Oc2ccc(S(=O)(=O)c3ccccc3)cc21 | 91.1% | 73.8%
129 nM | 398 nM | CN(C)C(=O)C1=CC(C)(C)Oc2ccc([N+](=O)[O-])cc21 | 78.3% | 79.9%
